In US20050070460A1 (priority 2003, published 2005):

Assays:
in vitro [1] = details: dog
[2] = tested on: humanized, non-lethal influenza virus; assay: Viral titers in rats after intranasal pre-infection treatment and influenza challenge; type: in vivo, Fisher 344 rats; details: intranasal administration prior to infection, 24 hours after the infection, compared also to IFN-α pretreatment
[3] = tested on: Influenza A/Panama/2007/99 (H3N2)
[4] = tested on: Severe acute respiratory syndrome (SARS) coronavirus, strain Urbani
[5] = tested on: Human coronavirus (HcoV), strain OC43; assay: microbe, parasite or virus in culture; details: unidentified human coronavirus, OC43, BSC-1
[6] = tested on: Influenza A/New Calcdonia/20/99 (H1N1)
[7] = tested on: Influenza A/Panama/2007/99 (H3N2); assay: microbe, parasite or virus in culture; details: H3N2, MDCK
[8] = tested on: Human coronavirus (HcoV), strain OC43
[9] = tested on: Influenza A/New Calcdonia/20/99 (H1N1); assay: microbe, parasite or virus in culture; details: H1N1, MDCK
[10] = tested on: Severe acute respiratory syndrome (SARS) coronavirus, strain Urbani; assay: microbe, parasite or virus in culture; details: Severe acute respiratory syndrome-related coronavirus, Vero 76, SARS, Vero 76 cells; PBMC supernatant = indirect, IRM in media = direct
in vitro [11] = details: African green monkey
MDCK cells = details: Influenza A (H1N1) test

Structure (SMILES) | CC50 (in vitro [1]) [µM] | viral titer present in the lung [2] | viral titer present in the nasal cavity [2] | SI (CC50/EC50) [3] | SI (CC50/EC50) [4] | antiviral activity (in words) [4] | EC50 [5] [µM] | SI (CC50/EC50) [6] | EC50 [7] [µM] | SI (CC50/EC50) [8] | EC50 [9] [µM] | EC50 [10] [µM] | CC50 (in vitro [11]) [µM] | CC50 (MDCK cells) [µM]
CCOCc1nc2c(N)nc3ccccc3c2n1CC(C)(C)NS(C)(=O)=O [IRM, N-{2-[4-amino-2-(ethoxymethyl)-1H-imidazo[4,5-c]quinolin-1-yl]-1,1-dimethylethyl}methanesulfonamide] | > 300 | dramatically reduced | dramatically reduced | 0 | 50 | significant direct activity | > 150 | 0 | > 300 | 0 | > 300 | ~3 | > 150 | > 300
NC(=O)c1ncn([C@@H]2O[C@H](CO)[C@@H](O)[C@H]2O)n1 [Ribavirin, ribavirin, reference compound] | > 450 |  |  | >19 |  |  |  | >32 | 24 |  | 14 |  |  | > 450
